# Reference: patent publication US20180352845A1, “NUTRITIONAL COMPOSITIONS AND INFANT FORMULAS TO PROMOTE MYELINATION IN THE BRAIN” (NESTEC S.A., priority 2015, published 2018)
# Tested on: brain myelination (myelin water fraction)
# Assay: Cross-sectional correlation analysis (GLM) of infant formula nutrient composition vs brain myelination by mcDESPOT MRI
# Format: in vivo, human
# Conditions: children up to 5 years fed different infant formulas during infancy; voxel-wise correlations, p<0.05 corrected; inter-variable correlation threshold 0.9
# Method: MRI brain scans of infants and children between 0 and 5 years were acquired using a white matter imaging technique. This technique provides a quantitative measure, the Myelin Water Fraction (MWF), which is a surrogate marker of myelin content. When mapped as a function of time across early childhood, myelination trajectories can be generated.
# Infant formula composition: six infant formulas fed to infants participating in study were analyzed for their composition/level of myelin-relevant nutrients.
# Infants included in this study were drawn from a larger longitudinal study of normal brain and behavioral development: the Brown university Assessment of Myelination and Behavior Across Maturation (BAMBAM). To focus on neurotypical development, children with known potential risk factors for learning, neurologic, or psychiatric disorders were specifically excluded during recruitment and enrollment. Thus, children with in utero alcohol or illicit substance exposure, premature (<37 weeks gestation) or multiple birth, fetal ultrasound abnormalities, complicated pregnancy (e.g., preeclampsia), APGAR scores <8, NICU admission, neurological disorder (e.g., head injury, epilepsy), psychiatric or developmental disorders in the infant, parents or siblings (including maternal depression requiring medication) were excluded. Ongoing screenings, such as the MCAT for autism, or CBCL for behavioral problems, were further used to remove enrolled children with clinically concerning behaviors or overt medical conditions (such as autism spectrum disorders).
# A combination of retrospective and prospective data were acquired from parents via detailed medical histories and parental interview on type of infant formula used, percentage of breastfeeding to formula feeding, and length of exclusive breastfeeding. This information was updated at each study visit, which occurred approximately every 6 months for children under 2 years, and yearly for older children. Using this information, children were categorized into one of 2 groups: #1. Exclusively formula-fed; and #2. Exclusively breastfed for at least 90 days (3 months). Children who were fed a combination of breastmilk and formula within 3 months were excluded from our analysis. Infants within the exclusively formula-fed group were further sub-divided based on parental reports of the main infant formula used throughout the first 3 months. Main formula was defined as that given 90% of the time or more (in the case were parents used an alternate brand during vacation, for example).
# Using these criteria, 94 exclusively formula-fed infants and young children were selected into group #1. These included 13 children who received formula #2; 28 who received formula #5; 8 who received formula #3; 39 who received formula #4; 5 who received formula #1 and 1 who received formula #6. A sample of 52 exclusively breast-fed infants were also selected and matched to the over formula-fed group with regards to mean age, gestation duration, birth weight, male:female ratio, ethnicity ratio, maternal education, family size, and number of languages spoken in the home (in addition to English).
# Each infant was scanned using the mcDESPOT (multicomponent Driven Equilibrium Single Pulse Observation of T1 and T2) white matter imaging technique Deoni et al. (Magn. Reson. Med. 2008, 60:1372-1387), which provides a quantitative measure of the myelin water fraction (MWF) at each imaging point throughout the brain. All infants were scanned during natural (i.e. non-sedated) sleep using acoustically-muffled mcDESPOT imaging protocols. Total imaging times ranged from 19 minutes for the youngest toddlers to 24 minutes for the older 4 year-old children.
row,Molecule,nutritional drivers for myelination indicated by the final general linear model
1,"CCCCC/C=C\C/C=C\C/C=C\C/C=C\CCCC(=O)O [ARA, arachidonic acid]",identified drivers
2,[Mg+2] [Magnesium],identified drivers
3,[Ca+2] [calcium],identified drivers
4,[P] [phosphorus],identified drivers
5,[Zn] [zinc],identified drivers
6,iron,identified drivers
7,phosphatidylcholine,identified drivers
8,phosphatidylinositol,identified drivers
9,sphingomyelin,identified drivers
